System: HT-29 cells
Assay: Comet assay (single cell gel electrophoresis), genotoxic potential
Format: cell-based, Human
Details: concentration corresponding to quercetin 70 µM

`O=c1c(O)c(-c2ccc(O)c(O)c2)oc2cc(O)cc(O)c12` [quercetin] was tested, and the “genotoxic effect / DNA integrity” value was “genotoxic effect”.

Source: patent EP3673920A1, “POLYPHENOL-PEPTIDE CONJUGATES FOR NUCLEAR-TARGETED DELIVERY” (Universität Wien, priority 2018, dated 2020)
